Experimental data taken from paper PMC3997483, “Aminostyrylbenzofuran Directly Reduces Oligomeric Amyloid-β and Reverses Cognitive Deficits in Alzheimer Transgenic Mice” (PLoS ONE, 2014).
Where two headings read alike, the source gives them in different places.

Experiments:
[1] = Metabolic stability in liver microsomes; type: in vitro ADME; conditions: rat liver microsomes
[2] = Metabolic stability in liver microsomes; type: in vitro ADME; conditions: mouse liver microsomes
[3] = Pharmacokinetics IV/PO in rats; type: in vivo, SD rats; conditions: for AUC(0-t): read-out: AUC0–24h
Description: Pharmacokinetics profile of KMS88009 was obtained using ICR mice, SD rats, beagle dogs and cynomolgus monkeys. Animals were fasted overnight before KMS88009 administration. Mice were divided into 2 groups to receive KMS88009 as a single dose of 2.1 mg/kg intravenous (IV) bolus or 10 mg/kg orally (PO) by gavage. Additionally, KMS88009 was administered orally to estimate the BBB penetration in mice (10, 30 and 100 mg/kg). […] Dog received KMS88009 either as an IV bolus (1 mg/kg) via the great saphenous vein or by oral gavage (4 mg/kg). KMS88009 was administrated to monkeys as an IV bolus (1 mg/kg) via the femoral vein or by oral gavage (4 mg/kg). Vehicle for IV and PO administration was DMSO/tween-20/saline (3.3∶19.8∶[…]). […]. Brain samples were weighed and Daunce-homogenized in 10-fold volume of ice-chilled 4% bovine serum albumin (BSA) solution at room temperature. Plasma and brain homogenates were kept frozen at −70°C until analysis. The levels of KMS88009 were determined by the LC-MS/MS analysis. Pharmacokinetic parameters, time to the maximum concentration (Tmax), maximum concentration (Cmax), elimination half-life (T1/2), volume of distribution (Vd), clearance (Cl) and mean residual time (MRT), of KMS88009 were calculated based on plasma concentration-time data by a non-compartmental method using WinNonlin Version 5.2 (Pharsight, USA). Area under the curve from 0 to 24 hr (AUC0-24h) and area under the curve from 0 to infinity (AUCINF) were obtained by linear and log linear trapezoidal summations.

APP/PS1 TG mice [4] = test: Y-maze, prophylactic trial; type: in vivo, mouse; conditions: 5 to 12 months of age
APP/PS1 TG mice [5] = test: Morris water maze, prophylactic trial; type: in vivo, mouse; conditions: for swimming time % within the target quadrant (probe trial): APP/PS1 TG mice, vehicle TG 23.4%, WT 44.3%; for Latency (hidden platform): TG mice
Description: Behavioral tests were performed in the following sequence: Y-maze (day 1), Morris water maze (day 4 to 12) and contextual fear conditioning (day 26 to 27). To reduce stress, contextual fear conditioning was carried out 2 weeks after the Morris water maze task. In the therapeutic trial, APP/PS1 TG mice were treated with KMS88009 (30 mg/kg/day) for 3 months from 9 to 12 months of age. Y-maze tests short-term spatial working memory. Y-maze is a 3-armed (40 L×10 W×12 H cm) horizontal maze in which the arms are symmetrically disposed at 120° angles from each other. Mice were placed at the end of one arm and allowed to move freely through the maze during a 5-min session. Arm entry was considered completed when the hind paws of the mouse were completely placed in the arm. Alternation was defined as successive entries into the 3 arms on overlapping triplet sets. The series of arm entries was recorded via video recorders. The percentage of alternation was defined according to the following equation: % alternation = [(number of alternations)/(total arm entries - 2)] ×100. Mice performing fewer than 7 alternations in 5 min were excluded from the subsequent analysis to accurately determine alternation scores. Morris water maze was used to measure spatial learning and memory. A stainless pool apparatus with a diameter of 120 cm was used. A clear escape platform (circle, 12×12 cm) was located 1.0 cm below (hidden) the water surface containing white nontoxic paint. The temperature of water was kept constant throughout the experiment (21±1°C). The visual cues, for mice to recognize the environment and direction, are placed on the walls around the pool. The training was consisted of 8 consecutive days of testing with 4 trials per day. When a mouse was located on the escape platform, it was permitted to remain on the platform for 15 sec. […] Then the subject was returned to its home cage and allowed to dry up after each trial. The platform location was kept constant and the starting position was varied. Each mouse was placed in the water with their nose pointing toward the wall at one of the starting points in a random manner. During each trial session, the time taken to find the hidden platform (latency) was recorded using a video camera-based Ethovision System (Nodulus, Nertherlands). On the 9th day, each mouse was tested on a probe trial. The platform was removed from pool and the mice were allowed to swim for 60 sec to search. Swimming time was recorded during mice were in the pool quadrant where the platform had been previously located. Mice, which float or jump from platform, were eliminated from the experiment since these responses may be incompatible with the behaviors needed to locate and learn the platform position. In addition, animals with difficulty in swimming were also excluded from this study. Fear conditioning task was measured to test the ability to learn and remember an association between an aversive experience and environmental cues. Contextual fear conditioning evaluation was performed using a fear-conditioning chamber (Courlbourn, USA) equipped with a computer-controlled fear conditioning system (FreActimetrics, USA). On the first day of training, each mouse was placed in the conditioning chamber and left to adjust for 2 min. Fear conditioning test was performed with conditional stimulus (CS) of sound (75 dB) for 20 sec followed by unconditional stimulus (US) of electric foot-shock (0.5 mA) for the last 2 sec in CS. After 1 min, the subject was returned to its home cage. After 24 hr, retention test was performed. […] Freezing response was measured without CS or US. Freezing behavior was defined as the complete absence of any movement except for respiration and heartbeat. Animals with no response to the foot-shock during training were excluded from the analysis. Data analyses including recordings of all behavioral responses were performed by keeping research colleagues blind.

Aβ oligomers = test: Western blot (6E10) of hippocampus soluble fraction, prophylactic trial; type: in vivo, mouse; conditions: soluble fraction of hippocampal homogenates, TG mice
[6] = read-out: Remaining % of parent molecule at 60 min.

`COc1ccc2cc(C=Cc3ccc(N(C)C)cc3)oc2c1` [KMS88009, 6-methoxy-2-(4-dimethylaminostyryl) benzofuran] showed a half-life at 5 µM [1] of 58.4 ± 0.4 min, a remaining at 1 h, 5 µM [1, 6] of 61.2 ± 0.2% and a half-life at 5 µM [2] of 65.3 ± 0.6 min. It also gave a remaining at 1 h, 5 µM [2, 6] of 52.4 ± 0.3%, an MRT last ([3]; SD, plasma, rat IV 1.25 mg/kg) of 1.8 h and a Vd ([3]; SD, plasma, rat IV 1.25 mg/kg) of 8 L/kg. It also gave a clearance ([3]; SD, plasma, rat IV 1.25 mg/kg) of 13.3 mL/min/kg, a half-life ([3]; SD, plasma, rat IV 1.25 mg/kg) of 432 min and an MRT last ([3]; SD, plasma, rat PO 2.5 mg/kg) of 4 h. The half-life ([3]; SD, plasma, rat PO 2.5 mg/kg) was 240 min, the AUC(0-inf) ([3]; SD, rat IV 1.25 mg/kg, plasma) was 1670 ng·h/mL and the AUC(0-t) ([3]; SD, rat IV 1.25 mg/kg, plasma) was 1640 ng·h/mL. It also gave an AUC(0-inf) ([3]; SD, rat PO 2.5 mg/kg, plasma) of 929 ng·h/mL, an AUC(0-t) ([3]; SD, rat PO 2.5 mg/kg, plasma) of 908 ng·h/mL and a BA ([3]; rat PO […] vs IV 1.25 mg/kg) of 27.8%. For the same molecule, the “frequency of spontaneous alternation (Y-maze)” value (from here on “frequency”) (APP/PS1 TG mice [4]; PO 10 mg/kg/day) was 69.3%, the “frequency” value (APP/PS1 TG mice [4]; PO 30 mg/kg/day) was 68.5% and the “frequency” value (APP/PS1 TG mice [4]; PO 100 mg/kg/day) was 70.2%. For the same molecule, the “swimming time % within the target quadrant (probe trial)” value (APP/PS1 TG mice [5]; PO 10 mg/kg/day) was 40.4%, the “swimming time % within the target quadrant (probe trial)” value (APP/PS1 TG mice [5]; PO 30 mg/kg/day) was 39.7% and the “swimming time % within the target quadrant (probe trial)” value (APP/PS1 TG mice [5]; PO 100 mg/kg/day) was 37.6%. For the same molecule, the “Latency (hidden platform)” value (APP/PS1 TG mice [5]; Day 1, dose group + (10 mg/kg/day)) was 50.5 ± 2.1 s, the “Latency (hidden platform)” value (APP/PS1 TG mice [5]; Day 1, dose group ++ (30 mg/kg/day)) was 49.2 ± 2.4 s and the “Latency (hidden platform)” value (APP/PS1 TG mice [5]; Day 1, dose group +++ (100 mg/kg/day)) was 48.3 ± 3.0 s. The “Latency (hidden platform)” value (APP/PS1 TG mice [5]; Day 2, dose group + (10 mg/kg/day)) was 39.8 ± 2.7 s, the “Latency (hidden platform)” value (APP/PS1 TG mice [5]; Day 2, dose group ++ (30 mg/kg/day)) was 38.3 ± 3.0 s and the “Latency (hidden platform)” value (APP/PS1 TG mice [5]; Day 2, dose group +++ (100 mg/kg/day)) was 37.6 ± 5.2 s. The “Latency (hidden platform)” value (APP/PS1 TG mice [5]; Day 3, dose group + (10 mg/kg/day)) was 31.1 ± 2.5 s, the “Latency (hidden platform)” value (APP/PS1 TG mice [5]; Day 3, dose group ++ (30 mg/kg/day)) was 30.6 ± 3.3 s and the “Latency (hidden platform)” value (APP/PS1 TG mice [5]; Day 3, dose group +++ (100 mg/kg/day)) was 34.3 ± 4.3 s. For the same molecule, the “Latency (hidden platform)” value (APP/PS1 TG mice [5]; Day 4, dose group + (10 mg/kg/day)) was 35.1 ± 2.8 s, the “Latency (hidden platform)” value (APP/PS1 TG mice [5]; Day 4, dose group ++ (30 mg/kg/day)) was 32.9 ± 3.0 s and the “Latency (hidden platform)” value (APP/PS1 TG mice [5]; Day 4, dose group +++ (100 mg/kg/day)) was 32.0 ± 4.0 s. The “Latency (hidden platform)” value (APP/PS1 TG mice [5]; Day 5, dose group + (10 mg/kg/day)) was 41.8 ± 3.2 s, the “Latency (hidden platform)” value (APP/PS1 TG mice [5]; Day 5, dose group ++ (30 mg/kg/day)) was 36.3 ± 4.2 s and the “Latency (hidden platform)” value (APP/PS1 TG mice [5]; Day 5, dose group +++ (100 mg/kg/day)) was 29.6 ± 4.1 s. For the same molecule, the “Latency (hidden platform)” value (APP/PS1 TG mice [5]; Day 6, dose group + (10 mg/kg/day)) was 32.9 ± 1.9 s, the “Latency (hidden platform)” value (APP/PS1 TG mice [5]; Day 6, dose group ++ (30 mg/kg/day)) was 29.3 ± 3.9 s and the “Latency (hidden platform)” value (APP/PS1 TG mice [5]; Day 6, dose group +++ (100 mg/kg/day)) was 33.4 ± 4.8 s. The “Latency (hidden platform)” value (APP/PS1 TG mice [5]; Day 7, dose group + (10 mg/kg/day)) was 31.7 ± 2.6 s, the “Latency (hidden platform)” value (APP/PS1 TG mice [5]; Day 7, dose group ++ (30 mg/kg/day)) was 28.6 ± 3.5 s and the “Latency (hidden platform)” value (APP/PS1 TG mice [5]; Day 7, dose group +++ (100 mg/kg/day)) was 30.0 ± 2.6 s. For the same molecule, the “Latency (hidden platform)” value (APP/PS1 TG mice [5]; Day 8, dose group + (10 mg/kg/day)) was 26.6 ± 3.0 s, the “Latency (hidden platform)” value (APP/PS1 TG mice [5]; Day 8, dose group ++ (30 mg/kg/day)) was 25.6 ± 3.0 s and the “Latency (hidden platform)” value (APP/PS1 TG mice [5]; Day 8, dose group +++ (100 mg/kg/day)) was 27.9 ± 4.6 s. The “Aβ oligomer species affected (western blot)” value (Aβ oligomers) was “prevented the accumulation of low-molecular-weight (3-mer) and high-molecular-weight (55 to 180 kDa) Aβ oligomeric species”.
